This note sets out measurements from patent US8211945B2, “Carba-sugar amine derivative and glycolipid metabolic disorder treating agent containing the same as active ingredient” (Seikagaku Corporation, priority 2001, dated 2012).

What all share (test): Mutant β-galactosidase activity in model cells, 4 days culture
What all share (type): cell-based

The target of test [1] is T1, human mutant β-galactosidase I51T (Homo sapiens, UniProt P16278, I51T).
T1 construct: expressed in transfected cells; host or cells: SV40-immortalized skin fibroblasts of a β-galactosidase-deficient knockout mouse
T1 sequence (P16278 29-677 I51T): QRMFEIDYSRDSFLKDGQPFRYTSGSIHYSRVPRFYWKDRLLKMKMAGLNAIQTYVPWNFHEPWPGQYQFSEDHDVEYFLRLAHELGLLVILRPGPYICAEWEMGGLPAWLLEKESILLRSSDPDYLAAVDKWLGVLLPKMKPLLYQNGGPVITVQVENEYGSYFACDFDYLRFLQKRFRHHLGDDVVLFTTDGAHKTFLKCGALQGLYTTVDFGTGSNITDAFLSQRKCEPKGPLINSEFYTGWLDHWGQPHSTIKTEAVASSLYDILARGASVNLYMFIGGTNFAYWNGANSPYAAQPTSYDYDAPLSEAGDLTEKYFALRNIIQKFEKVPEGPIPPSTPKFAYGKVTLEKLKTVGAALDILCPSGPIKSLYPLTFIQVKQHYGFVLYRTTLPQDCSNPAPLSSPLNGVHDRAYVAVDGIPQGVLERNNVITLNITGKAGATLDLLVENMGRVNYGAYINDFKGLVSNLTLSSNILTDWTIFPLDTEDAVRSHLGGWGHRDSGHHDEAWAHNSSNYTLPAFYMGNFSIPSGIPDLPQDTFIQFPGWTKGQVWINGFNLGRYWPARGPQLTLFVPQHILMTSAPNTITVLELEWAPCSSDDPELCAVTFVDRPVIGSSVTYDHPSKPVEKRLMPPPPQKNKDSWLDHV
From the text: (§1) Cultured skin fibroblasts of a β-galactosidase-deficient knockout mouse was immortalized by introducing an SV40 viral gene, and enzyme genes integrated into pSV2neo and an expression vector were also introduced simultaneously, thereby establishing a model cell (Brain Dev., 23(5), 284-287, 2001). The genes used are human normal (GP8) and mutant β-galactosidase gene Y316C, G123R (infantile GM1-gangliosidosis), R201C (juvenile GM1-gangliosidosis), 151T, T82M, R201H, R263S, R457Q (adult GM1-gangliosidosis), W273L, Y83H, R482H and R482C (Morquio-B disease) (Hum. Genet., 93(2), 109-114, 1994).
(§2) As a control substance, 0.5 mM N-(n-butyl)-deoxygalactonojirimycin (NB-DGJ: The Journal of Biological Chemistry, 269, 27108-27114 (1994)) was used, and the substance 18 of the present invention was used in an amount of 0.2 μM.
(§3) Specifically, after culturing the model cell for 4 days using a cell culture medium (10% FCS DMEM) containing the substance 18 of the present invention, the resulting cells were recovered and diluted such that the amount of protein in the suspension became a predetermined level, and then enzyme activity in the diluted suspension was measured. Using 4-methylumbelliferyl-β-D-galactopyranoside as the fluorescent substrate, the enzyme activity during 30 minutes was measured at 37° C.

The target in test [2] is T2, human mutant β-galactosidase R457Q (Homo sapiens, UniProt P16278, R457Q).
T2 construct: expressed in transfected cells; host or cells: SV40-immortalized skin fibroblasts of a β-galactosidase-deficient knockout mouse
T2 sequence (P16278 29-677 R457Q): T1 sequence (P16278 29-677 I51T) with T23I, R429Q
Excerpt: as §1, §2, §3

For test [3], the target named is T3, human mutant β-galactosidase T82M (Homo sapiens, UniProt P16278, T82M).
T3 construct: expressed in transfected cells; host or cells: SV40-immortalized skin fibroblasts of a β-galactosidase-deficient knockout mouse
T3 sequence (P16278 29-677 T82M): T1 sequence (P16278 29-677 I51T) with T23I, T54M
Excerpt: as §1, §2, §3

Each structure is given as a SMILES string. Changes are numbered by the printed parent chain.

`CCCCN1C[C@H](O)[C@@H](O)[C@@H](O)[C@H]1CO` [Control, N-(n-butyl)-deoxygalactonojirimycin, reference compound]: the “enzyme activity, Control” value in test [1] (transferred gene I51T, control substance 0.5 mM NB-DGJ) is 1.42; in test [2] (transferred gene R457Q, control substance 0.5 mM NB-DGJ) it was 5.84; in test [3] (transferred gene T82M, control substance 0.5 mM NB-DGJ), 0.67.

In the case of `CCCCCCCCN[C@@H]1C=C(CO)[C@H](O)C(O)[C@@H]1O` (stereo partly drawn) [Substance 18, N-octyl-5a-carba-α-L-arabino-hexo-5(5a)-enopyranosylamine], the “Relative ratio (×100%)” value is reported as 3.08 ×100% in test [1] (I51T, substance 18 vs control); 2.42 ×100% in test [2] (R457Q, substance 18 vs control); 0.88 ×100% in test [3] (T82M, substance 18 vs control). Moreover, the enzyme activity in test [1] (transferred gene I51T, 0.2 μM, 4 days) is 4.37; in test [2] (transferred gene R457Q, 0.2 μM, 4 days), 14.17; in test [3] (transferred gene T82M, 0.2 μM, 4 days) it was 0.59. Further, in test [2] (R457Q, 0.2 μM), the “enzyme activity increased in comparison with the control” value is given as no less than 150%.
